Reference: PubChem BioAssay AID1259407 (Chemical Carcinogenesis Research Information System (CCRIS), 2018)
Active and inactive are the calls of the source. The rule behind the calls is not given here.

System: CCRIS mutagenicity, Ames/micronucleus/aberration tests
Experiment: CCRIS mutagenicity studies

C=CC#N
mutagenic call (Test System: AMES SALMONELLA TYPHIMURIUM, Strain/Indicator: TA1535, Metabolic Activation: HAMSTER LIVER S-9, AROCLOR 1254 (5, 10, OR 30%), Method: PREINCUBATION): active; positive | mutagenic call (Test System: AMES SALMONELLA TYPHIMURIUM, Strain/Indicator: TA1535, Metabolic Activation: HAMSTER, LIVER, S-9, AROCLOR 1254 (2.5-20%), Method: STANDARD PLATE): active; positive | mutagenic call (Test System: AMES SALMONELLA TYPHIMURIUM, Strain/Indicator: TA1535, Metabolic Activation: HAMSTER, LIVER, S-9, AROCLOR 1254 (10%), Method: STANDARD PLATE): active; positive | mutagenic call (Test System: AMES SALMONELLA TYPHIMURIUM, Strain/Indicator: TA1535, Metabolic Activation: HAMSTER, LIVER, S-9, AROCLOR 1254 (10, 20%), Method: PREINCUBATION): active; positive | mutagenic call (Test System: AMES SALMONELLA TYPHIMURIUM, Strain/Indicator: TA1535, Metabolic Activation: HAMSTER, LIVER, S-9, AROCLOR 1254 (20%), Method: STANDARD PLATE): active; positive | mutagenic call (Test System: AMES SALMONELLA TYPHIMURIUM, Strain/Indicator: TA1535, Metabolic Activation: MOUSE, LIVER, S-9, AROCLOR 1254, Method: LIQUID, VAPOR, SPOT): active; positive | mutagenic call (Test System: AMES SALMONELLA TYPHIMURIUM, Strain/Indicator: TA1535, Metabolic Activation: NONE, Method: PREINCUBATION): inactive; negative | mutagenic call (Test System: AMES SALMONELLA TYPHIMURIUM, Strain/Indicator: TA1535, Metabolic Activation: NONE, Method: STANDARD PLATE): inactive; negative | mutagenic call (Test System: AMES SALMONELLA TYPHIMURIUM, Strain/Indicator: TA1535, Metabolic Activation: RAT LIVER S-9, AROCLOR 1254 (5%), Method: PREINCUBATION): active; positive | mutagenic call (Test System: AMES SALMONELLA TYPHIMURIUM, Strain/Indicator: TA1535, Metabolic Activation: RAT LIVER S-9, AROCLOR 1254 (5,10, OR 30%), Method: PREINCUBATION): active; positive | mutagenic call (Test System: AMES SALMONELLA TYPHIMURIUM, Strain/Indicator: TA1535, Metabolic Activation: RAT LIVER S-9, AROCLOR 1254 (10% OR 30%), Method: PREINCUBATION): active; positive | mutagenic call (Test System: AMES SALMONELLA TYPHIMURIUM, Strain/Indicator: TA1535, Metabolic Activation: RAT, LIVER, S-9, 3-METHYLCHOLANTHRENE OR PCB OR PHENOBARBITAL, Method: DESICCATOR): active; positive | mutagenic call (Test System: AMES SALMONELLA TYPHIMURIUM, Strain/Indicator: TA1535, Metabolic Activation: RAT, LIVER, S-9, AROCLOR 1254, Method: STANDARD PLATE): inactive; negative | mutagenic call (Test System: AMES SALMONELLA TYPHIMURIUM, Strain/Indicator: TA1537, Metabolic Activation: NONE, Method: STANDARD PLATE): inactive; negative | mutagenic call (Test System: AMES SALMONELLA TYPHIMURIUM, Strain/Indicator: TA1537, Metabolic Activation: RAT, LIVER, S-9, AROCLOR 1254, Method: STANDARD PLATE): inactive; negative | mutagenic call (Test System: AMES SALMONELLA TYPHIMURIUM, Strain/Indicator: TA1538, Metabolic Activation: MOUSE, LIVER, S-9, AROCLOR 1254, Method: LIQUID, VAPOR, SPOT): active; positive | mutagenic call (Test System: AMES SALMONELLA TYPHIMURIUM, Strain/Indicator: TA1538, Metabolic Activation: NONE, Method: STANDARD PLATE): inactive; negative | mutagenic call (Test System: AMES SALMONELLA TYPHIMURIUM, Strain/Indicator: TA1538, Metabolic Activation: RAT, LIVER, S-9, AROCLOR 1254, Method: STANDARD PLATE): inactive; negative | mutagenic call (Test System: AMES SALMONELLA TYPHIMURIUM, Strain/Indicator: TA1978, Metabolic Activation: MOUSE, LIVER, S-9, AROCLOR 1254, Method: VAPOR): active; positive | mutagenic call (Test System: Ames Salmonella typhimurium, Strain/Indicator: YG7108pin3ERb5, Metabolic Activation: None, Method: Standard plate): inactive; negative | mutagenic call (Test System: CHINESE HAMSTER V-79, Strain/Indicator: V-79 (HGPRT)/8-AZAGUANINE, Metabolic Activation: NONE, Method: REPLATING): inactive; negative | mutagenic call (Test System: CHINESE HAMSTER V-79, Strain/Indicator: V-79 (HGPRT)/8-AZAGUANINE, Metabolic Activation: RAT, LIVER, S-9, AROCLOR 1254, Method: REPLATING): inactive; negative | mutagenic call (Test System: E. COLI, Strain/Indicator: WP2, Metabolic Activation: NONE, Method: FLUCTUATION): active; positive | mutagenic call (Test System: E. COLI, Strain/Indicator: WP2, Metabolic Activation: NONE, Method: STANDARD PLATE): active; positive | mutagenic call (Test System: E. COLI, Strain/Indicator: WP2 UVRA, Metabolic Activation: NONE, Method: STANDARD PLATE): active; positive | mutagenic call (Test System: MOUSE LYMPHOMA, Strain/Indicator: L5178Y (TK+/+)/OUABAIN, Metabolic Activation: NONE, Method: SUSPENSION/PLATE): inactive; negative | mutagenic call (Test System: MOUSE LYMPHOMA, Strain/Indicator: L5178Y (TK+/+)/OUABAIN, Metabolic Activation: RAT LIVER S-9, AROCLOR 1254, Method: SUSPENSION/PLATE): inactive; negative | mutagenic call (Test System: MOUSE LYMPHOMA, Strain/Indicator: L5178Y (TK+/TK-), Metabolic Activation: RAT, LIVER, S-9, Method: SUSPENSION/PLATE): active; positive | mutagenic call (Test System: MOUSE LYMPHOMA, Strain/Indicator: L5178Y(TK+/TK-)/TRIFLUOROTHYMIDINE, Metabolic Activation: NONE, Method: SUSPENSION PLATE): active; positive | mutagenic call (Test System: UDS HUMAN MAMMARY EPITHELIAL CELLS, Strain/Indicator: THY INCORP, Metabolic Activation: NONE, Method: AUTORADIOGRAPHY): inactive; negative | mutagenic call (Test System: UDS PRIMARY RAT HEPATOCYTES, Strain/Indicator: THY INCORP, Metabolic Activation: NONE, Method: AUTORADIOGRAPHY): inactive; negative | mutagenic call (Test System: UDS PRIMARY RAT HEPATOCYTES, Strain/Indicator: THY INCORP, Metabolic Activation: NONE, Method: IN VIVO-IN VITRO): inactive; negative | mutagenic call (Test System: UDS PRIMARY RAT SPERMATOCYTES, Strain/Indicator: THY INCORP, Metabolic Activation: NONE, Method: IN VIVO-IN VITRO): inactive; negative | mutagenic call (Test System: UDS RAT HEPATOCYTES, Strain/Indicator: THY INCORP, Metabolic Activation: NONE, Method: LIQUID SCINTILLATION COUNTING): active; positive
